Test results reported in US9663463B2, “3-azabicyclo[3.1.0]hexane derivative and use thereof for medical purpose” (priority 2013, dated 2017).
Counter-ions that a name gives are not always drawn.

How the values were obtained:
human μ-opioid receptor = human μ-opioid receptor (Homo sapiens (Human), UniProt P35372); assay: Antagonist activity test using [35S]-GTPγS bond as index using human μ-opioid receptor-expressing cell membrane; format: biochemical
Method: Cells in which a human μ-opioid receptor had been highly expressed was purchased from ChanTest (Cleveland). The cells were cultured in a carbon dioxide gas culturing apparatus by using a Ham's F12 culture medium (Invitrogen) containing 10% of fetal bovine blood serum, 1% of non-essential amino acids, 0.4 mg/ml of G418, 100 U/ml of penicillin and 100 μg/ml of streptomycin. The cultured cells were suspended by using a 0.25% trypsin 1 mM EDTA solution, the suspension was collected by using phosphate-buffered saline and centrifuged at 4° C. and 1,000 rpm for 10 minute to remove the supernatant, whereby a cell mass was obtained. […] Similar homogenization and centrifugation operations were repeated on the sediment, a homogenized buffer was added again to the obtained sediment, and the resultant was similarly homogenized to give a membrane fraction solution. The obtained membrane fraction solution was dispensed, rapidly frozen and stored under freezing at −70° C. or less until use. Furthermore, the protein concentration of the obtained membrane fraction solution was measured by using a BCA protein Assay Kit (Cat. 23227, Pierce) according to the protocol attached to the kit.
The cell membrane fraction solution in which the human μ-opioid receptor had expressed, which had been stored under freezing, was melted, a GTP assay buffer (100 mM NaCl, 5 mM MgCl2, 1 mM EDTA-containing 50 mM Hepes (pH 7.4)) was added thereto, and the resultant was homogenized repeatedly twice by using a Polytron homogenizer (SMT Multi Disperser PB95) under ice cooling at 12,000 rpm for 20 seconds to give a homogeneous solution, and the homogeneous solution was diluted to 0.036 mg/ml with a GTP assay buffer containing 18.2 μM of GDP (final concentration: […]). The dilution was incubated for 15 minutes or more under ice cooling until the reaction was initiated. […] [^35S]-GTPγS (NEG030X, Perkinelmer) was diluted with a GTP assay buffer so as to be 0.616 nM (final concentration: 0.08 nM). The resultant was diluted with a GTP assay buffer so as to be 200 nM (final concentration: 10 nM) by using [D-Ala^2, N-Me-Phe^4, Gly^5-ol]-enkephalinacetate (DAMGO, Sigma) as a μ-opioid receptor agonist. WGA Coated PVT SPA Beads (RPNQ0001, Perkinelmer) were added so as to be 20 mg/ml with a GTP assay buffer, and the resultant was suspended (final concentration: 1 mg/well). 4 μL/well of a test substance solution, 10 μL/well of a DAMGO solution, 26 μL/well of a [^35S]-GTPγS solution, […] of a suspension liquid of WGA Coated PVT SPA Beads, and 110 μL/well of the membrane fraction solution were added to a 96 well plate (1450-401, Perkinelmer), the top part of the plate was sealed, and a reaction was performed at 30° C. for 60 minutes under stirring with a plate shaker. For each measurement plate, a well to which DMSO had been added instead of the test substance, and a well to which DMSO had been added instead of the test substance and a GTP assay buffer had been added instead of the DAMGO solution were prepared. Furthermore, after the reaction was completed, the reactant was centrifuged at room temperature and 1,000 rpm for 3 minutes, and the radioactivity was measured by a microplate scintillation luminescence counter (Perkinelmer).
The IC50 value of the test substance was calculated by using Graphpad Prism 5.

[1] = test system: pruritus mice model to which morphine had been intracisternally administered; assay: Anti-pruritic effect in pruritus mice model to which morphine had been intracisternally administered; format: in vivo; conditions: Mus musculus; oral administration, male ICR mice, inhibition of morphine-induced scratching behavior; read-out: ED50
Method: As experimental animals, male ICR (Cr1j: CD1 (ICR): Charles River Japan) mice were used at 5 to 6-week old. The mice were placed in an acrylic cage (colorless and transparent, W 13.5 cm×D 9.5 cm×H 40 cm) for observing scratching behavior for 30 minutes or more to thereby allow the mice to get used to the observation environment, and the test substance solutions were forcedly orally administered to the test substance-administered groups. In addition, an administration vehicle was forcedly orally administered to the normal control group and the pathological control group. A necessary amount of the test substance was weighed and formed into a micropowder in an agate mortar, an administration vehicle, a 0.5 w/v % methyl cellulose 400 solution (Wako Pure Chemical Industries Ltd.) was added little by little, and preparation was performed by suspending or dissolving so as to give an intended concentration (from 0.025 to 3 mg/ml). The test doses were preset to suitable doses in the range in which the maximum dose is 30 mg/10 ml/kg.
Based on 30 minutes after the forced oral administration of the test substance as a criterion, the time for the intracisternal administration of morphine was suitably set up to 120 minutes after at the maximum, with consideration for the times of maximum plasma concentration of the respective test substances, in the case when the in vivo pharmacokinetics of the test substance had been confirmed in advance. Furthermore, saline was intracisternally administered to the normal control group, and the above-mentioned morphine solution was intracisternally administered to the pathogenic control group, so as to be 5 μL/site at the same time as that of the test substance group after the forced oral administration of the administration vehicle in either case.
The behavior of each mouse within 60 minutes from the intracisternal administration of the morphine solution or saline was recorded by a digital video camera that was installed immediately above the acrylic cage, the images were stored in a digital video recorder, and the number of frequency of the scratching behavior was measured. The number of frequency of the scratching behavior was measured with deeming a behavior in which the mouse raised its hindlimb, scratched the facial surface and the peripheral sites thereof, and got the hindlimb off from the body within 30 minutes from after the intracisternal administration of the morphine or saline as one time.
The anti-pruritic effect of each test substance was obtained as follows. As an inhibition ratio against the number of frequency of the scratching behavior on the pathological control group, the inhibition ratio (%) of the respective individuals and the average value thereof were calculated from the following formula, and an ED50 value was calculated based on the obtained inhibition ratio. Inhibition ratio of each individual (%)={1−(A−Vehicle)/(Morphine−Vehicle)}×100 Morphine: the average of the scratching number of the pathological control group Vehicle: the average of the scratching number of the normal control group A: the scratching number of each individual in the test substance-administered group

[2] = Plasma concentration of test substance at ED50 value (mice, LC/MS/MS); format: in vivo; conditions: at the ED50 value, at time of morphine administration, oral, linear regression from two doses
Method: The concentration of the test substances in blood plasma was confirmed by using mice of the same week-old for the same dose as that used in the evaluation of the anti-pruritic effect. The test substance was administered by forced oral administration of an administration vehicle prepared in a similar manner to that in the evaluation of the anti-pruritic effect under a non-fasting condition. The blood samples were collected from the orbital venous plexus, within from 15 minutes after the administration of the test substance to after 180 minutes at the maximum, for multiple times including the timing at which the morphine solution was intracisternally administered, under inhalation anesthesia with diethyl ether or isoflurane using a heparin-treated hematocrit tubes. The collected blood samples were immediately ice-cooled and centrifuged at 1,800 g for 15 minutes at 4° C., and the plasma fractions were transferred and stored under freezing at −30° C. or less until measurement.
The concentrations of the test substances in plasma were measured using LC/MS/MS. Furthermore, as the measurement samples for LC/MS/MS, the supernatants obtained by adding an internal standard substance and acetonitrile in an amount within a range from 5-fold to 10-fold of the amount of the plasma to the collected plasma samples, and removing proteins therefrom, was used.

in vitro = in vitro ADME, mice; conditions: Crl:CD-1 (ICR), mouse, pH 7.4; murine serum, equilibrium dialysis, 37° C., 5 to 6 hours; read-out: Protein binding rate (converted)
Method: The protein binding rate was determined by equilibrium dialysis method using the RED Device (8K MWCO, Rapid Equilibrium Dialysis Device, Thermo Scientific). The test substances that had been dissolved in DMSO were added to the serum that was collected from Crl: CD-1 (ICR) mice fasted overnight, so that the final concentration of DMSO became 1% (v/v). The serum to which the test substance had been added was added to the inner side of the dialysis membrane of the RED Device, and PBS (phosphate buffer saline, pH 7.4) containing 0.01% (v/v) Tween 80 was added to the outside in accordance with the method for using the RED Device and incubated at 37° C. for 5 to 6 hours with ellipsoidal shaking at 100 rpm so that the concentration of the unbound test substance in the serum and the concentration of the test substance in the PBS reached equilibrium. After the incubation was completed, the respective solutions were collected and stored under freezing at −60° C. or less as measurement samples. The proteins were removed from the measurement sample by adding acetonitrile in an amount of 5-fold or more of the amount of the internal standard substance and the serum sample, and the supernatants were measured by LC/MS/MS (liquid chromatograph—triple quadrupole mass spectrometer). The serum samples were measured after suitably diluting with distilled water as necessary.
A: the concentration of the test substance in the PBS sample
B: the concentration of the test substance in the serum sample

hERG current = hERG current (Homo sapiens (Human), UniProt Q12809); assay: cell-based
hERG current, sequence (Q12809 whole entry): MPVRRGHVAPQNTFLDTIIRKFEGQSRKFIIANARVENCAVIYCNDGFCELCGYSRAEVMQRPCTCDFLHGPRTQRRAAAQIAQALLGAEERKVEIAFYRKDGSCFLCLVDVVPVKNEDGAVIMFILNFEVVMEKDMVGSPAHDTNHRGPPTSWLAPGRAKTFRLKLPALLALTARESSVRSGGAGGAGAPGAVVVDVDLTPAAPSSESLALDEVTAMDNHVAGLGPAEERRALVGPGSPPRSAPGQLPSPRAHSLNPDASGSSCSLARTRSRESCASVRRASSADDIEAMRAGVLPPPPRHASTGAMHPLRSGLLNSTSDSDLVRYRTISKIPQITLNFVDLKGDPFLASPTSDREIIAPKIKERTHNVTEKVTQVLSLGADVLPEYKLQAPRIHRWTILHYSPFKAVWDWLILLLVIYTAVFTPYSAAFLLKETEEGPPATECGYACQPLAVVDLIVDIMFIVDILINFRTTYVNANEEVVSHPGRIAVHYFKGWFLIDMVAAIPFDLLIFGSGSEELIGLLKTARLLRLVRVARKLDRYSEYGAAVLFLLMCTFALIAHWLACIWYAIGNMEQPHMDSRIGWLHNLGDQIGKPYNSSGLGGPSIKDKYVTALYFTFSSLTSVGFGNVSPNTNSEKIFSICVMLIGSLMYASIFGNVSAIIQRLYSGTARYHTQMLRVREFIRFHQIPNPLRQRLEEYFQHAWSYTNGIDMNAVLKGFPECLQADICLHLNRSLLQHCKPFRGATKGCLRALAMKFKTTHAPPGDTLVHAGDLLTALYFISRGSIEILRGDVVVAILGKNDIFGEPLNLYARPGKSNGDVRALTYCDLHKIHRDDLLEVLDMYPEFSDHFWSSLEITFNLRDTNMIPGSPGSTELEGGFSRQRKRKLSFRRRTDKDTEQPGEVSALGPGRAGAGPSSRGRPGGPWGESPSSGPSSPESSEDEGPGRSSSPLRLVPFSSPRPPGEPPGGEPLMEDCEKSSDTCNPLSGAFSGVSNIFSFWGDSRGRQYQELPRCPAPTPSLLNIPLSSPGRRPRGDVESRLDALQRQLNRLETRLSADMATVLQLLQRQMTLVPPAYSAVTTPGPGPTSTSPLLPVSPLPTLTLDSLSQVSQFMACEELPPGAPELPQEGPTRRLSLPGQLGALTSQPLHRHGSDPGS
Source text: A: the suppression rate (%) of the test substance in each cell
B: the average suppression rate (%) of the vehicle control group

SMILES | IC50 (human μ-opioid receptor) | ED50 [1] | Plasma concentration of test substance [2] | fraction unbound (in vitro) | IC50 (hERG current)
CCOC1(CN2C[C@@H]3[C@H](C2)[C@@]3(CC)c2cccc(NS(=O)(=O)C3CC3)c2)Cc2ccccc2C1 [Example 13-(b), N-(3-{(1R,5S,6r)-3-[(2-ethoxy-2,3-dihydro-1H-inden-2-yl)methyl]-6-ethyl-3-azabicyclo[3.1.0]hexan-6-yl}phenyl)cyclopropanesulfonamide hydrochloride] | 4.1 nM | 2.4 mg/kg | 0.0719 µM | – | –
CCOC1(CCCN2C[C@@H]3[C@H](C2)[C@@]3(CC)c2cccc(NS(=O)(=O)C3CC3)c2)CCC(F)(F)CC1 [Example 14-(b), N-(3-{(1R,5S,6r)-3-[3-(1-ethoxy-4,4-difluorocyclohexyl)propyl]-6-ethyl-3-azabicyclo[3.1.0]hexan-6-yl}phenyl)cyclopropanesulfonamide hydrochloride] | 1.3 nM | – | – | – | –
C=C[C@]1(c2cccc(NS(=O)(=O)C3CC3)c2)[C@@H]2CN(CC3(O)Cc4ccccc4C3)C[C@@H]21 [Example 19-(b), N-(3-{(1R,5S,6r)-3-[(2-hydroxy-2,3-dihydro-1H-inden-2-yl)methyl]-6-vinyl-3-azabicyclo[3.1.0]hexan-6-yl}phenyl)cyclopropanesulfonamide hydrochloride] | 4.5 nM | – | – | 0.009 | –
CC[C@]1(c2cccc(NS(=O)(=O)C3CC3)c2)[C@@H]2CN(CC3(O)Cc4cc(F)c(F)cc4C3)C[C@@H]21 [Example 20-(a), N-(3-{(1R,5S,6r)-3-[(5,6-difluoro-2-hydroxy-2,3-dihydro-1H-inden-2-yl)methyl]-6-ethyl-3-azabicyclo[3.1.0]hexan-6-yl}phenyl)cyclopropanesulfonamide] | 4.1 nM | – | – | 0.006 | –
CC[C@]1(c2cc(NS(=O)(=O)C3CC3)ccc2F)[C@@H]2CN(CC3(OC)Cc4ccccc4C3)C[C@@H]21 [Example 11-(b), N-(3-{(1R,5S,6r)-6-ethyl-3-[(2-methoxy-2,3-dihydro-1H-inden-2-yl)methyl]-3-azabicyclo[3.1.0]hexan-6-yl}-4-fluorophenyl)cyclopropanesulfonamide hydrochloride] | 2.8 nM | – | – | – | –
CC[C@]1(c2cc(F)cc(NS(=O)(=O)C3CC3)c2)[C@@H]2CN(CC3(OC)Cc4ccccc4C3)C[C@@H]21 [Example 12-(b), N-(3-{(1R,5S,6r)-6-ethyl-3-[(2-methoxy-2,3-dihydro-1H-inden-2-yl)methyl]-3-azabicyclo[3.1.0]hexan-6-yl}-5-fluorophenyl)cyclopropanesulfonamide hydrochloride] | 12 nM | 3.2 mg/kg | 0.193 µM | 0.002 | –
CC[C@]1(c2cc(NS(=O)(=O)C3CC3)ccc2F)[C@@H]2CN(CCCN3CCC(F)(F)C3)C[C@@H]21 [Example 9-(b), N-(3-{(1R,5S,6r)-3-[3-(3,3-difluoropyrrolidin-1-yl)propyl]-6-ethyl-3-azabicyclo[3.1.0]hexan-6-yl}-4-fluorophenyl)cyclopropanesulfonamide hydrochloride] | 2.5 nM | – | – | 0.173 | –
COC1(CN2C[C@@H]3[C@H](C2)[C@@]3(C)c2cccc(NS(=O)(=O)C3CC3)c2)Cc2ccccc2C1 [Example 18-(b), N-(3-{(1R,5S,6r)-3-[(2-methoxy-2,3-dihydro-1H-inden-2-yl)methyl]-6-methyl-3-azabicyclo[3.1.0]hexan-6-yl}phenyl)cyclopropanesulfonamide hydrochloride] | 16 nM | – | – | 0.007 | 400 nM
CC[C@]1(c2cccc(NS(=O)(=O)C3CC3)c2)[C@@H]2CN(CC3(O)Cc4ccccc4C3)C[C@@H]21 [Example 1-(b), N-(3-{(1R,5S,6r)-6-ethyl-3-[(2-hydroxy-2,3-dihydro-1H-inden-2-yl)methyl]-3-azabicyclo[3.1.0]hexan-6-yl}phenyl)cyclopropanesulfonamide hydrochloride] | 1.5 nM | – | – | – | –
